# ChEMBL document CHEMBL1799925, “Inhibition of sphingosine 1-phosphate lyase for the treatment of rheumatoid arthritis: discovery of (E)-1-(4-((1R,2S,3R)-1,2,3,4-tetrahydroxybutyl)-1H-imidazol-2-yl)ethanone oxime (LX2931) and (1R,2S,3R)-1-(2-(isoxazol-3-yl)-1H-imidazol-4-yl)butane-1,2,3,4-tetraol (LX2932)” (J Med Chem, 2010)
# Columns and labels:
# [1] = Half life in 129/SvEvBrd X C57BL/6 F1 mouse at 10 mg/kg, po by LC/MS/MS analysis; assay type: ADME, organism-based; design: dose 10 mg/kg, route oral; conditions: in vivo
# [2] = Cmax in 129/SvEvBrd X C57BL/6 F1 mouse at 10 mg/kg, po by LC/MS/MS analysis; assay type: ADME, organism-based; design: dose 10 mg/kg, route oral; conditions: in vivo
# [3] = Tmax in 129/SvEvBrd X C57BL/6 F1 mouse at 10 mg/kg, po by LC/MS/MS analysis; assay type: ADME, organism-based; design: dose 10 mg/kg, route oral; conditions: in vivo
# [4] = Volume of distribution at steady state in 129/SvEvBrd X C57BL/6 F1 mouse at 1 mg/kg, iv by LC/MS/MS analysis; assay type: ADME, organism-based; design: dose 1 mg/kg, route intravenous; conditions: in vivo, read-out: Vdss
# [5] = Clearance in 129/SvEvBrd X C57BL/6 F1 mouse at 1 mg/kg, iv by LC/MS/MS analysis; assay type: ADME, organism-based; design: dose 1 mg/kg, route intravenous; conditions: in vivo
# [6] = Bioavailability in 129/SvEvBrd X C57BL/6 F1 mouse determined from 1 mg/kg, iv and 10 mg/kg, po by LC/MS/MS analysis; assay type: ADME, organism-based; conditions: 129/SvEvBrd X C57BL/6 F1, mouse, in vivo
# [7] = Tmax in Sprague-Dawley rat at 10 mg/kg, po by LC/MS/MS analysis; assay type: ADME, organism-based; design: dose 10 mg/kg, route oral; conditions: in vivo
# [8] = Cmax in Sprague-Dawley rat at 10 mg/kg, po by LC/MS/MS analysis; assay type: ADME, organism-based; design: dose 10 mg/kg, route oral; conditions: in vivo
# [9] = AUC (0 to infinity) in Sprague-Dawley rat at 10 mg/kg, po by LC/MS/MS analysis; assay type: ADME, organism-based; design: time infinity, dose 10 mg/kg, route oral; conditions: plasma
# Rattus norvegicus [10] = assay: Volume of distribution at steady state in Sprague-Dawley rat at 10 mg/kg, po by LC/MS/MS analysis; assay type: ADME, organism-based; design: dose 10 mg/kg, route oral; conditions: in vivo
# [11] = Clearance in Sprague-Dawley rat at 1 mg/kg, iv by LC/MS/MS analysis; assay type: ADME, organism-based; design: dose 1 mg/kg, route intravenous; conditions: in vivo
# [12] = Oral bioavailability in Sprague-Dawley rat determined from 1 mg/kg, iv and 10 mg/kg, po by LC/MS/MS analysis; assay type: ADME, organism-based; conditions: in vivo
# [13] = Tmax in Beagle dog at 50 mg/kg, po by LC/MS/MS analysis; assay type: ADME, organism-based, Canis lupus familiaris; design: dose 50 mg/kg, route oral; conditions: in vivo
# [14] = Cmax in Beagle dog at 50 mg/kg, po by LC/MS/MS analysis; assay type: ADME, organism-based, Canis lupus familiaris; design: dose 50 mg/kg, route oral; conditions: in vivo
# [15] = AUC (0 to infinity) in Beagle dog at 50 mg/kg, po by LC/MS/MS analysis; assay type: ADME, organism-based, Canis lupus familiaris; design: dose 50 mg/kg, route oral, time infinity; conditions: plasma
# Canis familiaris [16] = assay: Volume of distribution at steady state in Beagle dog at 50 mg/kg, po by LC/MS/MS analysis; assay type: ADME, organism-based, Canis lupus familiaris; design: dose 50 mg/kg, route oral; conditions: in vivo
# [17] = Clearance in Beagle dog at 1 mg/kg, iv by LC/MS/MS analysis; assay type: ADME, organism-based, Canis lupus familiaris; design: dose 1 mg/kg, route intravenous; conditions: in vivo
# [18] = Bioavailability in Beagle dog determined from 1 mg/kg, iv and 50 mg/kg, po by LC/MS/MS analysis; assay type: ADME, organism-based, Canis lupus familiaris; conditions: in vivo
# [19] = Tmax in cynomolgus monkey at 30 mg/kg, po by LC/MS/MS analysis; assay type: ADME, organism-based, Macaca fascicularis; design: dose 30 mg/kg, route oral; conditions: in vivo
# [20] = Cmax in cynomolgus monkey at 30 mg/kg, po by LC/MS/MS analysis; assay type: ADME, organism-based, Macaca fascicularis; design: dose 30 mg/kg, route oral; conditions: in vivo
# [21] = AUC (0 to infinity) in cynomolgus monkey at 30 mg/kg, po by LC/MS/MS analysis; assay type: ADME, organism-based, Macaca fascicularis; design: dose 30 mg/kg, route oral, time infinity; conditions: plasma
# Cynomolgus monkey [22] = assay: Volume of distribution at steady state in cynomolgus monkey at 30 mg/kg, po by LC/MS/MS analysis; assay type: ADME, organism-based, Macaca fascicularis; design: dose 30 mg/kg, route oral; conditions: in vivo
# [23] = Clearance in cynomolgus monkey at 1 mg/kg, iv by LC/MS/MS analysis; assay type: ADME, organism-based, Macaca fascicularis; design: dose 1 mg/kg, route intravenous; conditions: in vivo
# [24] = Bioavailability in cynomolgus monkey determined from 1 mg/kg, iv and 30 mg/kg, po by LC/MS/MS analysis; assay type: ADME, organism-based, Macaca fascicularis; conditions: in vivo
# [25] = Tmax in healthy human at 1 mg/kg, po by LC/MS/MS analysis; assay type: ADME, organism-based; design: dose 1 mg/kg, route oral; conditions: in vivo
# [26] = Cmax in healthy human at 1 mg/kg, po by LC/MS/MS analysis; assay type: ADME, organism-based; design: dose 1 mg/kg, route oral; conditions: in vivo
# [27] = AUC (0 to infinity) in healthy human at 1 mg/kg, po by LC/MS/MS analysis; assay type: ADME, organism-based; design: time infinity, dose 1 mg/kg, route oral; conditions: plasma
# Rattus norvegicus [28] = assay: Increase in S1P level in Sprague-Dawley rat thymus at 30 mg/kg, po administered daily for 3 days measured after 18 hrs […] relative to untreated control; assay type: functional
# Rattus norvegicus [29] = assay: Increase in S1P level in Sprague-Dawley rat spleen at 30 mg/kg, po administered daily for 3 days measured after 18 hrs […] relative to untreated control; assay type: functional
# Rattus norvegicus [30] = assay: Increase in S1P level in Sprague-Dawley rat jejunum at 30 mg/kg, po administered daily for 3 days measured after 18 hrs […] relative to untreated control; assay type: functional
# Mus musculus [31] = assay: Immunomodulatory activity in mouse assessed as induction of lymphopenia at 30 to 100 mg/kg, po administered as single dose measured after 18 hrs; assay type: functional; conditions: dose mg/kg 30-100
# Mus musculus [32] = assay: Antiarthritic activity in […] collagen-induced arthritic mouse assessed as decrease in circulating T cells at 100 mg/kg, po qd administered one day before collagen challenge; assay type: functional, T-cell; design: scale not given: the % may be the effect or the level left
# Canis familiaris [33] = assay: Cardiotoxicity in Beagle dog assessed as increase in heart rate at 500 mg/kg, po administered as single dose after 24 hrs by electrocardiogram analysis; assay type: toxicity, organism-based, Canis lupus familiaris; design: dose 500 mg/kg, route oral; conditions: in vivo
# Cynomolgus monkey [34] = assay: Cardiotoxicity in cynomolgus monkey assessed as increase in heart rate at 1000 mg/kg, po administered as single dose after 24 hrs by electrocardiogram analysis; assay type: toxicity, organism-based, Macaca fascicularis; design: dose 1000 mg/kg, route oral; conditions: in vivo
# Homo sapiens [35] = assay: Immunomodulatory activity in arthritic patient assessed as decrease in peripheral lymphocytes at […], po administered as single dose after 48 hrs; assay type: functional; design: scale not given: the % may be the effect or the level left
# Homo sapiens [36] = assay: Toxicity in arthritic patient assessed as tolerability at […], po administered as single dose; assay type: organism-based; design: route oral; conditions: in vivo
# Mus musculus [37] = assay: Immunomodulatory activity in 129/SvEvBrd X C57BL/6 F1 mouse assessed as decrease in peripheral blood lymphocyte count at 30 mg/kg, po measured after 18 hrs by complete blood count analysis relative to control; assay type: ADME, organism-based; design: dose 30 mg/kg, route oral; scale not given: the % may be the effect or the level left; conditions: in vivo
# [38] = AUC (0 to infinity) in 129/SvEvBrd X C57BL/6 F1 mouse at 10 mg/kg, po by LC/MS/MS analysis; assay type: ADME, organism-based, Plasma; design: time infinity, dose 10 mg/kg, route oral; conditions: 129/SvEvBrd X C57BL/6 F1, mouse, plasma
structure (smiles),measurement,setting,value
C/C(=N\O)c1nc([C@@H](O)[C@H](O)[C@H](O)CO)c[nH]1.Cl,half-life,[1],1.6 h
same,Cmax,[2],3.6 µM
same,Tmax,[3],0.45 h
same,Vd,[4],0.9 L/kg
same,clearance,[5],7.6 mL/min/kg
same,bioavailability,[6],6.8%
same,Tmax,[7],2 h
same,Cmax,[8],2.7 µM
same,AUC(0-inf),[9],18.7 µM·h
same,Vdss,Rattus norvegicus [10],0.6 L/kg
same,clearance,[11],10.2 mL/min/kg
same,bioavailability,[12],26%
same,Tmax,[13],2 h
same,Cmax,[14],79.5 µM
same,AUC(0-inf),[15],323 µM·h
same,Vdss,Canis familiaris [16],0.3 L/kg
same,clearance,[17],3.5 mL/min/kg
same,bioavailability,[18],32.1%
same,Tmax,[19],2.3 h
same,Cmax,[20],16.9 µM
same,AUC(0-inf),[21],70.1 µM·h
same,Vdss,Cynomolgus monkey [22],0.5 L/kg
same,clearance,[23],4.8 mL/min/kg
same,bioavailability,[24],16.4%
same,Tmax,[25],2 h
same,Cmax,[26],3 µM
same,AUC(0-inf),[27],19 µM·h
same,fold change (FC),Rattus norvegicus [28],80
same,fold change (FC),Rattus norvegicus [29],24
same,fold change (FC),Rattus norvegicus [30],45
same,Activity,Mus musculus [31],40%
same,Activity,Mus musculus [32],40%
same,Activity,Canis familiaris [33],Non-toxic
same,Activity,Cynomolgus monkey [34],Non-toxic
same,Activity,Homo sapiens [35],50%
same,Activity,Homo sapiens [36],Non-toxic
same,Activity,Mus musculus [37],-60%
same,AUC(0-inf),[38],8.8 µM·h
